Experimental data taken from ChEMBL document CHEMBL1126937, “Synthesis of new 11 beta-substituted spirolactone derivatives. Relationship with affinity for mineralocorticoid and glucocorticoid receptors” (J Med Chem, 1993).

What follows are compounds tested against T1, Mineralocorticoid receptor (Homo sapiens) (UniProt P08235) (assay: Displacement of [3H]aldosterone from mineralocorticoid receptor of rabbit kidney). Settings: Oryctolagus cuniculus; target entry is the homologue from another species.
T1 sequence (whole entry): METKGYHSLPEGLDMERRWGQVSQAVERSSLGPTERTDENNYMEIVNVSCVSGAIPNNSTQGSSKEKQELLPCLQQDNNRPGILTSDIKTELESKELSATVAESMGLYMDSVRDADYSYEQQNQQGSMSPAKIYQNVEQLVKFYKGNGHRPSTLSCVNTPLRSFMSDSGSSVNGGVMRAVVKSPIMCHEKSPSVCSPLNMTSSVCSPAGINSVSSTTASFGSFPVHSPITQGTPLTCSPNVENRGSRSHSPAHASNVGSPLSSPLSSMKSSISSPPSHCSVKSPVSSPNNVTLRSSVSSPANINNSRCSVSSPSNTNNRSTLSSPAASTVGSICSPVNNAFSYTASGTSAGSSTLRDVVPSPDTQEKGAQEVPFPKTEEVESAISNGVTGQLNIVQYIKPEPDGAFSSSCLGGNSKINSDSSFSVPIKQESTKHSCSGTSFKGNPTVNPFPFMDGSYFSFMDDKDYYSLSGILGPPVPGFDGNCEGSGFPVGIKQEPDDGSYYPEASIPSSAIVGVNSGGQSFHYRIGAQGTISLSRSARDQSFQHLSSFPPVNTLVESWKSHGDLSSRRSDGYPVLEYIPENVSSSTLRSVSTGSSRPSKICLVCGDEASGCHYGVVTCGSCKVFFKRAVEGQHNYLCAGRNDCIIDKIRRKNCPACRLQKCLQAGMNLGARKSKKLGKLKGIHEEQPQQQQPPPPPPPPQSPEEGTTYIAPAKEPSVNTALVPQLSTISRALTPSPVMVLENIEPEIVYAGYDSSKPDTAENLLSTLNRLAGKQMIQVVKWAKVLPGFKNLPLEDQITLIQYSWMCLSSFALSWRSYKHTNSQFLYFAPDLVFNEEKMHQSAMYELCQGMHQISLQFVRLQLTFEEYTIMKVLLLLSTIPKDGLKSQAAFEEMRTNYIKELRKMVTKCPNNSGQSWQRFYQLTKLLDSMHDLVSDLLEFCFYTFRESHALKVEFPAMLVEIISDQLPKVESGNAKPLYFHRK

Question: With `COCCC[C@H]1C[C@@]2(C)C(CC[C@@]23CCC(=O)O3)C2CCC3=CC(=O)CCC3=C21` (some centres undefined) as the compound, how does the RBA read?
Answer: The RBA was 0.5%.

Question: How did the RBA turn out when `C=C=C[C@H]1C[C@@]2(C)C(CC[C@@]23CCC(=O)O3)C2CCC3=CC(=O)CCC3=C21` (some centres undefined) was run?
Answer: Its RBA is 110%.

Question: For `CC(C)(C)OCCC[C@H]1C[C@@]2(C)C(CC[C@@]23CCC(=O)O3)C2CCC3=CC(=O)CCC3=C21` (some centres undefined), which RBA is on record?
Answer: Its RBA is less than 0.1%.

Question: For `C=C/C=C1\C[C@@]2(C)C(CC[C@@]23CCC(=O)O3)C2CCC3=CC(=O)CCC3=C12` (some centres undefined), which RBA is on record?
Answer: Its RBA is 2%.

Question: For `C[C@H]1C[C@@]2(C)C(CC[C@@]23CCC(=O)O3)C2CCC3=CC(=O)CCC3=C21` (some centres undefined), which RBA is on record?
Answer: The RBA was 6%.

Question: How did the RBA turn out when `CC(=O)S[C@@H]1CC2=CC(=O)CC[C@]2(C)[C@H]2CC[C@@]3(C)[C@@H](CC[C@@]34CCC(=O)O4)[C@H]12` was run?
Answer: Its RBA is 4%.

Question: How did the RBA turn out when `C=C[C@H]1C[C@@]2(C)C(CC[C@@]23CCC(=O)O3)C2CCC3=CC(=O)CCC3=C21` (some centres undefined) was run?
Answer: The RBA was 14%.

Question: Which RBA does the source give for `C[C@]12CCC3=C4CCC(=O)C=C4CCC3C1CC[C@@]21CCC(=O)O1` (some centres undefined) here?
Answer: The RBA was 13%.

Question: How did the RBA turn out when `C[C@]12CCC(=O)C=C1C=C[C@@H]1[C@@H]2CC[C@@]2(C)[C@H]1CC[C@@]21CCC(=O)O1` was run?
Answer: The RBA was 1%.

Question: `C[C@]12C[C@H](CCCO)C3=C4CCC(=O)C=C4CCC3C1CC[C@@]21CCC(=O)O1` (some centres undefined) was tested. Which RBA did it give?
Answer: Its RBA is less than 0.1%.

Question: `C[C@]12CCC(=O)C=C1CC[C@@H]1[C@@H]2[C@@H](O)C[C@]2(C=O)[C@@H](C(=O)CO)CC[C@@H]12` was tested. Which RBA did it give?
Answer: Its RBA is 100%.

Question: How did the RBA turn out when `C[C@@H]1C[C@H]2[C@@H]3CCC4=CC(=O)C=C[C@]4(C)[C@@]3(F)[C@@H](O)C[C@]2(C)[C@@]1(O)C(=O)CO` was run?
Answer: The RBA was 20%.

Question: For `C/C=C1\C[C@@]2(C)C(CC[C@@]23CCC(=O)O3)C2CCC3=CC(=O)CCC3=C12` (some centres undefined), which RBA is on record?
Answer: The RBA was 7%.

Question: For `CC(=O)S[C@@H]1CC2=CC(=O)C=C[C@]2(C)[C@H]2CC[C@@]3(C)[C@@H]([C@@H]4C[C@@H]4[C@@]34CCC(=O)O4)[C@H]12`, which RBA is on record?
Answer: The RBA was 21%.
